Test results: patent US7199143B2, “Chemical compounds” (AstraZeneca AB, priority 2002, dated 2007)
Converted amounts (≈) assume the structure as drawn.

How the values were obtained:
[1] = test system: Streptococcus pneumoniae; assay: MIC, agar with 5% defibrinated horse blood; format: cell-based; settings: agar + 5% horse blood, 5% carbon dioxide, 48 hours
Description: (§1) The following results were obtained on a standard in-vitro test system. The activity is described in terms of the minimum inhibitory concentration (MIC) determined by the agar-dilution technique with an inoculum size of 10^4 CFU/spot. Typically, compounds are active in the range 0.01 to 256 μg/ml.
(§2) Streptococci and enterococci were tested on agar supplemented with 5% defibrinated horse blood, an inoculum of 10^4 CFU/spot and an incubation temperature of 37° C. in an atmosphere of 5% carbon dioxide for 48 hours—blood is required for the growth of some of the test organisms. Fastidious Gram negative organisms were tested in Mueller-Hinton broth, supplemented with hemin and NAD, grown aerobically for 24 hours at 37° C., and with an innoculum of 5×10^4 CFU/well.

[2] = test system: Streptococcus pyogenes; assay: MIC, agar with 5% defibrinated horse blood; format: cell-based; settings: agar + 5% horse blood, 5% carbon dioxide, 48 hours
Description: as §1, §2

[3] = test system: Staphylococcus aureus MRQR (methicillin resistant and quinolone resistant); assay: MIC, agar-dilution, staphylococci; format: cell-based; settings: 10^4 CFU/spot, 37° C., 24 hours
Description: as §1
(§3) Staphylococci were tested on agar, using an inoculum of 10^4 CFU/spot and an incubation temperature of 37° C. for 24 hours—standard test conditions for the expression of methicillin resistance.

[4] = test system: Staphylococcus aureus MSQS (methicillin sensitive and quinolone sensitive); assay: MIC, agar-dilution, staphylococci; format: cell-based; settings: 10^4 CFU/spot, 37° C., 24 hours
Description: as §1, §3

[5] = target: T1, MAO-A (Homo sapiens, UniProt P21397); assay: MAO-A standard in-vitro assay, human liver enzyme expressed in yeast; format: biochemical
T1 construct: made in house; host or cells: yeast
T1 sequence (P21397 1-527): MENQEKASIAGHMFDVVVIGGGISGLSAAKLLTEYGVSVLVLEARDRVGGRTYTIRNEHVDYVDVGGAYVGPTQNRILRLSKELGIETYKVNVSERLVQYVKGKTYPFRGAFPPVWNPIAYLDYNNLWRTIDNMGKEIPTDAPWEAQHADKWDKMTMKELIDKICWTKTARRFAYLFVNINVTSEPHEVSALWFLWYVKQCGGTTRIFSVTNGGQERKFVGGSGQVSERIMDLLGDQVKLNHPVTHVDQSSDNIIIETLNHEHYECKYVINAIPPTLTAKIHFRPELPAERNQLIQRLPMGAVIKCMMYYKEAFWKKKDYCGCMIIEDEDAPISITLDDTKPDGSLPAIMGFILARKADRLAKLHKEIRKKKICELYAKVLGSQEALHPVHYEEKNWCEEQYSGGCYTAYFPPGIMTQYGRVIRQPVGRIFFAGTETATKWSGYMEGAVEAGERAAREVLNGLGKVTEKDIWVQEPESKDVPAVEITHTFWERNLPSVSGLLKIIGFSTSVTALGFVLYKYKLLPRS
Description: The activity of the compounds of the invention against MAO-A was tested using a standard in-vitro assay based on human liver enzyme expressed in yeast as described in Biochem. Biophys. Res. Commun. 1991, 181, 1084–1088.

[6] = test system: Moraxella catarrhalis; assay: MIC, fastidious Gram negative organisms, Mueller-Hinton broth; format: cell-based; settings: Mueller-Hinton broth with hemin and NAD, 24 hours, 5×10^4 CFU/well
Description: as §1, §2

[7] = test system: Haemophilus influenzae; assay: as above; format: cell-based; settings: Mueller-Hinton broth with hemin and NAD, 24 hours, 5×10^4 CFU/well
Description: as §1, §2

Compound: [N-]=[N+]=NCc1cn(C[C@H]2CN(c3ccc(C4=CC[S+]([O-])CC4)c(F)c3)C(=O)O2)nn1 (stereo partly drawn) [Example 3, (5R)-3-[4-(1(R,S)-Oxo-3,6-dihydro-2H-thiopyran-4-yl)-3-fluorophenyl]-5-[(4-azidomethyl)-1,2,3-triazol-1-ylmethyl]oxazolidin-2-one]
- MIC [1]: 2 mg/L
- MIC [2]: 2 mg/L
- MIC [3]: 8 mg/L (≈ 18.5 µM)
- MIC [4]: 4 mg/L (≈ 9.27 µM)
- Ki [5]: > 410 µM
- MIC [6]: 4 mg/L (≈ 9.27 µM)
- MIC [7]: 2 mg/L (≈ 4.64 µM)
